Test results published in patent US20230085307A1, “PYRIDAZINONE COMPOUND AND HERBICIDE” (NISSAN CHEMICAL CORPORATION, priority 2019, published 2023).

What was measured:
green foxtail [1] = experiment: Test Example 5: herbicidal effect by foliage application, plastic box (Table 20, symbol G); type: in vivo, green foxtail (Setaria viridis); settings: foliage application, 320 g/ha, three weeks after application
How it was run: (§1)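 Plants were sown into sterilized diluvial soil under about 1.5 cm cover and kept in a greenhouse at 25° C. to 30° C. Fourteen days on, foliage received an even spray of the diluted emulsion. Herbicidal or crop effect was judged three weeks afterwards.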

redroot pigweed [2] = experiment: Test Example 5: herbicidal effect by foliage application, plastic box (Table 20, symbol N); type: in vivo, redroot pigweed (Amaranthus retroflexus); settings: foliage application, 320 g/ha, three weeks after application
How it was run: as §1

barnyard grass [3] = experiment: Test Example 5: herbicidal effect by foliage application, plastic box (Table 20, symbol H); type: in vivo, barnyard grass (Echinochloa crus-galli); settings: foliage application, 320 g/ha, three weeks after application
How it was run: as §1

windgrass [4] = experiment: Test Example 4: herbicidal effect by soil treatment (Table 19, symbol L); type: in vivo, windgrass (Apera spica-venti); settings: amount of applied herbicide 320 g/ha
How it was run: (§2)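 In this soil treatment, the formulated compound reached the seeds only through the soil: seeds were buried about 1.5 cm deep in sterilized diluvial soil, then the diluted emulsion was sprayed over the surface. After three weeks at 25° C. to 30° C. in a greenhouse, effects were graded on criteria from an earlier test.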

chickweed [5] = experiment: Test Example 5: herbicidal effect by foliage application, plastic box (Table 20, symbol P); type: in vivo, common chickweed (Stellaria media); settings: foliage application, 320 g/ha, three weeks after application
How it was run: as §1

persian speedwell [6] = experiment: Test Example 4: herbicidal effect by soil treatment (Table 19, symbol R); type: in vivo, Persian speedwell (Veronica persica); settings: amount of applied herbicide 320 g/ha
How it was run: as §2

blackgrass [7] = experiment: Test Example 4: herbicidal effect by soil treatment (Table 19, symbol J); type: in vivo, blackgrass (Alopecurus myosuroides); settings: amount of applied herbicide 320 g/ha
How it was run: as §2

lambsquarters [8] = experiment: Test Example 4: herbicidal effect by soil treatment (Table 19, symbol O); type: in vivo, lambsquarters (Chenopodium album); settings: amount of applied herbicide 320 g/ha
How it was run: as §2

rice flat sedge = experiment: Test Example 3: herbicidal effect by foliage application, Wagner pot (Table 18, symbol E); type: in vivo, rice flat sedge (Cyperus iria); settings: 320 g/ha
How it was run: (§3)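 Plants were sown in alluvial soil held under 0.1–0.5 cm standing water and grown 14 days in a greenhouse at 25–30 °C. An emulsifiable formulation, water-diluted to the set dose, was then sprayed onto the foliage, and effects were scored three weeks later using previously defined criteria.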

Chinese sprangletop = experiment: Test Example 3: herbicidal effect by foliage application, Wagner pot (Table 18, symbol D); type: in vivo, chinese sprangletop (Leptochloa chinensis); settings: 320 g/ha
How it was run: as §3

wild oat [9] = experiment: Test Example 5: herbicidal effect by foliage application, plastic box (Table 20, symbol I); type: in vivo, wild oat (Avena fatua); settings: foliage application, 320 g/ha, three weeks after application
How it was run: as §1

southern crabgrass [10] = experiment: Test Example 5: herbicidal effect by foliage application, plastic box (Table 20, symbol F); type: in vivo, southern crabgrass (Digitaria ciliaris); settings: foliage application, 320 g/ha, three weeks after application
How it was run: as §1

Italian ryegrass [11] = experiment: Test Example 5: herbicidal effect by foliage application, plastic box (Table 20, symbol K); type: in vivo, Italian ryegrass (Lolium multiflorum); settings: foliage application, 320 g/ha, three weeks after application
How it was run: as §1

barnyard grass [12] = experiment: Test Example 4: herbicidal effect by soil treatment (Table 19, symbol H); type: in vivo, barnyard grass (Echinochloa crus-galli); settings: amount of applied herbicide 320 g/ha
How it was run: as §2

green foxtail [13] = experiment: Test Example 4: herbicidal effect by soil treatment (Table 19, symbol G); type: in vivo, green foxtail (Setaria viridis); settings: amount of applied herbicide 320 g/ha
How it was run: as §2

Italian ryegrass [14] = experiment: Test Example 4: herbicidal effect by soil treatment (Table 19, symbol K); type: in vivo, Italian ryegrass (Lolium multiflorum); settings: amount of applied herbicide 320 g/ha
How it was run: as §2

velvetleaf [15] = experiment: Test Example 4: herbicidal effect by soil treatment (Table 19, symbol M); type: in vivo, velvetleaf (Abutilon theophrasti); settings: amount of applied herbicide 320 g/ha
How it was run: as §2

southern crabgrass [16] = experiment: Test Example 4: herbicidal effect by soil treatment (Table 19, symbol F); type: in vivo, southern crabgrass (Digitaria ciliaris); settings: amount of applied herbicide 320 g/ha
How it was run: as §2

wild oat [17] = experiment: Test Example 4: herbicidal effect by soil treatment (Table 19, symbol I); type: in vivo, wild oat (Avena fatua); settings: amount of applied herbicide 320 g/ha
How it was run: as §2

barnyard grass [18] = experiment: Test Example 3: herbicidal effect by foliage application, Wagner pot (Table 18, symbol H); type: in vivo, barnyard grass (Echinochloa crus-galli); settings: 320 g/ha
How it was run: as §3

velvetleaf [19] = experiment: Test Example 5: herbicidal effect by foliage application, plastic box (Table 20, symbol M); type: in vivo, velvetleaf (Abutilon theophrasti); settings: foliage application, 320 g/ha, three weeks after application
How it was run: as §1

blackgrass [20] = experiment: Test Example 5: herbicidal effect by foliage application, plastic box (Table 20, symbol J); type: in vivo, blackgrass (Alopecurus myosuroides); settings: foliage application, 320 g/ha, three weeks after application
How it was run: as §1

chickweed [21] = experiment: Test Example 4: herbicidal effect by soil treatment (Table 19, symbol P); type: in vivo, common chickweed (Stellaria media); settings: amount of applied herbicide 320 g/ha
How it was run: as §2

persian speedwell [22] = experiment: Test Example 5: herbicidal effect by foliage application, plastic box (Table 20, symbol R); type: in vivo, Persian speedwell (Veronica persica); settings: foliage application, 320 g/ha, three weeks after application
How it was run: as §1

lambsquarters [23] = experiment: Test Example 5: herbicidal effect by foliage application, plastic box (Table 20, symbol O); type: in vivo, lambsquarters (Chenopodium album); settings: foliage application, 320 g/ha, three weeks after application
How it was run: as §1

redroot pigweed [24] = experiment: Test Example 4: herbicidal effect by soil treatment (Table 19, symbol N); type: in vivo, redroot pigweed (Amaranthus retroflexus); settings: amount of applied herbicide 320 g/ha
How it was run: as §2

windgrass [25] = experiment: Test Example 5: herbicidal effect by foliage application, plastic box (Table 20, symbol L); type: in vivo, windgrass (Apera spica-venti); settings: foliage application, 320 g/ha, three weeks after application
How it was run: as §1

How did the “herbicidal effect grade, G: green foxtail” value (green foxtail [1]) turn out when `COc1ccc(F)cc1-c1sc2ccccc2c1-c1c(O)c(C)nn(C)c1=O` [1-058] was run?
The value was 4 (Herbicidal rate of 70% or more and less than 90%).

And the “herbicidal effect grade, N: redroot pigweed” value (redroot pigweed [2])?
Its value is 2 (Herbicidal rate of 20% or more and less than 40%).

What about the “herbicidal effect grade, H: barnyard grass” value (barnyard grass [3]) of the same molecule?
Its value is 3 (Herbicidal rate of 40% or more and less than 70%).

What about the “herbicidal effect rating, L: windgrass” value (windgrass [4]) of the same molecule?
Its value is 0 (Herbicidal rate of 5% or less (almost no effect)).

What about the “herbicidal effect grade, P: chickweed” value (chickweed [5]) of the same molecule?
Its value is 5 (Herbicidal rate of 90% or more (almost completely withered)).

What about the “herbicidal effect rating, R: persian speedwell” value (persian speedwell [6]) of the same molecule?
Its value is 4 (Herbicidal rate of 70% or more and less than 90%).

And the “herbicidal effect rating, J: blackgrass” value (blackgrass [7])?
Its value is 2 (Herbicidal rate of 20% or more and less than 40%).

And the “herbicidal effect rating, O: lambsquarters” value (lambsquarters [8])?
Its value is 3 (Herbicidal rate of 40% or more and less than 70%).

What about the “herbicidal effect on E (rice flat sedge), rating 0-5” value (rice flat sedge) of the same molecule?
Its value is 5 (Herbicidal rate of 90% or more (almost completely withered)).

What about the “herbicidal effect on D (Chinese sprangletop), rating 0-5” value (Chinese sprangletop) of the same molecule?
Its value is 3 (Herbicidal rate of 40% or more and less than 70%).

What about the “herbicidal effect grade, I: wild oat” value (wild oat [9]) of the same molecule?
Its value is 1 (Herbicidal rate of 5% or more and less than 20%).

What about the “herbicidal effect grade, F: southern crabgrass” value (southern crabgrass [10]) of the same molecule?
Its value is 3 (Herbicidal rate of 40% or more and less than 70%).

What about the “herbicidal effect grade, K: Italian ryegrass” value (Italian ryegrass [11]) of the same molecule?
Its value is 4 (Herbicidal rate of 70% or more and less than 90%).

And the “herbicidal effect rating, H: barnyard grass” value (barnyard grass [12])?
Its value is 3 (Herbicidal rate of 40% or more and less than 70%).

What about the “herbicidal effect rating, G: green foxtail” value (green foxtail [13]) of the same molecule?
Its value is 5 (Herbicidal rate of 90% or more (almost completely withered)).

And the “herbicidal effect rating, K: Italian ryegrass” value (Italian ryegrass [14])?
Its value is 0 (Herbicidal rate of 5% or less (almost no effect)).

What about the “herbicidal effect rating, M: velvetleaf” value (velvetleaf [15]) of the same molecule?
The value was 0 (Herbicidal rate of 5% or less (almost no effect)).

And the “herbicidal effect rating, F: southern crabgrass” value (southern crabgrass [16])?
The value was 2 (Herbicidal rate of 20% or more and less than 40%).

What about the “herbicidal effect rating, I: wild oat” value (wild oat [17]) of the same molecule?
The value was 1 (Herbicidal rate of 5% or more and less than 20%).

What about the “herbicidal effect on H (barnyard grass), rating 0-5” value (barnyard grass [18]) of the same molecule?
Its value is 4 (Herbicidal rate of 70% or more and less than 90%).

What about the “herbicidal effect grade, M: velvetleaf” value (velvetleaf [19]) of the same molecule?
The value was 1 (Herbicidal rate of 5% or more and less than 20%).

What about the “herbicidal effect grade, J: blackgrass” value (blackgrass [20]) of the same molecule?
The value was 4 (Herbicidal rate of 70% or more and less than 90%).

And the “herbicidal effect rating, P: chickweed” value (chickweed [21])?
Its value is 5 (Herbicidal rate of 90% or more (almost completely withered)).

What about the “herbicidal effect grade, R: persian speedwell” value (persian speedwell [22]) of the same molecule?
Its value is 4 (Herbicidal rate of 70% or more and less than 90%).

And the “herbicidal effect grade, O: lambsquarters” value (lambsquarters [23])?
Its value is 0 (Herbicidal rate of 5% or less (almost no effect)).

And the “herbicidal effect rating, N: redroot pigweed” value (redroot pigweed [24])?
Its value is 2 (Herbicidal rate of 20% or more and less than 40%).

What about the “herbicidal effect grade, L: windgrass” value (windgrass [25]) of the same molecule?
Its value is 4 (Herbicidal rate of 70% or more and less than 90%).
